Data as given in patent US20130315828A1, “KIT AND METHOD OF USE OF TARGETING PEPTIDE FOR DIAGNOSIS AND THERAPY OF CANCER” (NATIONAL TSING HUA UNIVERSITY, priority 2012, published 2013).

Assays:
[1] = Fluorophore-assisted carbohydrate electrophoresis (FACE), GBP binding to glycosaminoglycans; details: LMWH, CS, DS; PBS, 25° C., 15 min; FIG. 1A
Description: (§1) Fluorophore-assisted carbohydrate electrophoresis (FACE) is carried out by pre-mixing (A) AMAC-labeled LMWH, chondroitin sulfate (CS), and dermatan sulfate (DS) and (B) AMAC-labeled LMWH, de-2-O-sulfated heparin, de-6-O-sulfated heparin, and N-acetyl-de-O-sulfated heparin (0.33 nmol) with indicated fold molar excess of GBP before incubated with or without peptide in PBS at 25° C. for 15 min. The reaction products are separated on a 1% agarose gel. The reacted probe and protein are shown above the gel. Relative intensity (%) of free probe and the unlabeled competitors are shown at the bottom of the gel.
(§2) Carbohydrate were labeled with 2-aminoacridone (AMAC) (Invitrogen, catalog no. A6289) according to previous study (Calabro, A., Benavides, M., Tammi, M., Hascall, V. C., and Midura, R. J. (2000) Microanalysis of enzyme digests of hyaluronan and chondroitin/dermatan sulfate by fluorophore-assisted carbohydrate electrophoresis (FACE), Glycobiology 10, 273-281). Briefly, fifty micrograms GAGs were dried by freeze-drying machine, and then incubated with 40 μl 1.25 M 2-aminoacridone (AMAC)/85% DMSO/15% acetic acid at 25° C. for 15 min. Forty microliters of 1.25 M sodium cyanoborohydride (NaBH3CN) was added and incubated at 37° C. for 16 h. Afterwards, 720 μl 99% ice-cold ethanol was added at −20° C. for 15 min, then centrifugation at 11,000×g at 4° C. for 5 min. […]

[2] = FACE, GBP binding to heparin and desulfated heparins; details: LMWH and desulfated heparins; FIG. 1B
Description: as §1, §2

neoplastic lung tissues = test: IHC targeting of GBP in lung cancer tissue arrays, overall; type: binding, human
Description: The 5 μm slides were dried in the oven at 60° C. for 1 h. Briefly, the sections were deparaffinized with xylene (J. T. Baker Phillipsburg, N) for 15 min and rehydrated in graded ethanol solutions. Endogenous peroxidase activity was blocked by incubating the sections in a 3% hydrogen peroxide solution in distilled water for 10 min. The sections were then washed and placed in phosphate buffer for 10 min. Antigen retrieval was achieved by heat treatment using 10 mM citrate buffer solution pH 6.0 or by 0.1% trypsin treatment for 5 min (for 10E4). After the slides were blocked in 3% BSA solution for 1 h and incubated with 2 μM eGFP-GBP fusion protein for 2 h (for eGFP), these sections were then incubated with 10E4 antibody (1:200 dilution) and eGFP antibody (1:200 dilution) at 4° C. overnight, individually. […]
Every tumor was given a score according to the intensity of the nuclear or cytoplasmic staining (no staining=0; weak staining=1; moderate staining=2; strong staining=3) and the extent of stained cells (0-10%=0; 11-50%=1; 51-80%=2; 81-100%=3). The final immunoreactive score was determined by multiplying the intensity and extent of positivity scores of stained cells, with the minimum score of 0 and a maximum score of 9.
Specimen scores from 61 cases of lung cancers from tissue arrays were used for quantitative evaluation of IHC data. […]

Which “GBP binding to glycosaminoglycans (FACE)” value [1] does the source give for NYRWRCKNQN [GBP] here?
Its value is “probed universal glycosaminoglycans including low molecular weight heparin, chondroitin sulfate and dermatan sulfate”.

What about the “GBP recognition of sulfated HS / heparin derivatives (FACE)” value [2] of the same sequence?
The value was “identified sulfated HS, especially preferring O-sulfated heparin”.

And the “GBP recognition, aggressive versus early stage of cancer” value (neoplastic lung tissues)?
The value was “higher recognition toward more aggressive tumor progression”.
